Measured values: patent US11007169B2, “Cis-gnetin H and trans-gnetin H as therapeutic agents” (MIDDLE TENNESSEE STATE UNIVERSITY, priority 2014, dated 2021)
pIC50: −log10 of the molar value.

Legend:
[1] = test system: phosphorylated p65 (Ser536) in LPS-stimulated THP-1 cells; assay: Western blot, p65 phosphorylation; format: cell-based, human
Procedure: (§1) THP-1 cells were maintained in RPMI 1640 medium supplemented with 10% complement-inactivated FBS and 1% penicillin/streptomycin (complete culture medium) at 37° C. with 5% CO2 supplemented. Cell concentrations were adjusted to desired concentrations for each experiment by centrifugation at 500×g for 5 min and resuspended in complete culture medium with 100 nM of PMA. Cell concentration was adjusted to 5×10^5 cells/ml for all assays and 2.5×10^5 cells/ml were used for NF-κB nuclear translocation assay. Cells were seeded onto 96-, 24-, or 12-well plates and incubated for 48 to 72 h to allow for differentiation. Cells were washed with serum-free RPMI 1640 medium before each experiment to remove the undifferentiated cells.
Differentiated THP-1 cells were pretreated with various concentrations of cis-gnetin H, trans-gnetin H, or 10 μM of Bay 11-7082 for 1 h and stimulated with 1 μg/ml of LPS for 15 min. Cells were lysed with radio-immunoprecipitation assay (RIPA; 1% Triton X-100, 0.5% Sodium deoxycholate, 0.1% sodium dodecyl sulfate, 150 mM sodium chloride, and 50 mM Tris-chloride) lysis buffer that contained protease and phosphatase inhibitor cocktail. Cell lysates were then tested for protein concentration using a BCA protein assay, and diluted with RIPA lysis buffer to normalize protein concentration in all samples. […]

A549 cells = assay: Apoptosis assay by flow cytometry, A549; format: cell-based, human; conditions: 100 μM, 24 hours
Procedure: A549 and BT20 cells were seeded in a 96-well plate (BD Falcon) at a density of 8000 cells/well, and treated with cis- or trans-gnetin H for 24 hours. Apoptosis was assessed using Annexin V/7-AAD double staining as described (Bai et al., Cancer Sci. 2010; 101(2):488-493). Cells were analyzed on a Guava Flow Cytometer (Millipore) using InCyte software and the data was exported to FlowJo software for image display.

[2] = test system: IL-1β in LPS-stimulated THP-1 cells; assay: Cytokine response by ELISA, IL-1β; format: cell-based, human; conditions: cis 12.5-50 μM, trans 8-30 μM, 20 ng/ml LPS, p<0.05
Procedure: as §1
Differentiated THP-1 cells were pretreated with various concentrations of cis-gnetin H, trans-gnetin H, or 1 μM of dexamethasone for 1 h and stimulated with 20 ng/ml of LPS for 4 h. Dexamethasone is a synthetic glucocorticoid that suppresses cytokine response and was used as a positive control (Abraham et al., 2006, J. Exp. Med., 203:1883-9; Steer et al., J. Biol. Chem., 2000, 275(24):18432-40). Supernatants were collected for human cytokine ELISAs and the manufacturer's protocol was followed to assess the cytokine response. Cells remaining after the supernatant collection were tested for relative viability by Alamar Blue cytotoxicity assay as described earlier.

[3] = test system: A549 lung cancer xenografts; assay: Xenograft studies, A549 lung tumors in nude mice; format: in vivo; conditions: 2.4 mg/kg
Procedure: 14 male nude mice (6 weeks old) were injected subcutaneously on both flanks with 2×10^6 A549 cells. […] Tumor sizes were measured 3 times per week, and volumes were calculated using the formula [length (mm)]×[width (mm)]^2/2 (Warburton et al., Clin. Cancer Res. 2004; 10(7): 2512-2524).

[4] = test system: malignant cells (A549, BT20, MCF-7, U2OS); assay: IC50 determination, panel of malignant cell lines; format: cell-based, human
Procedure: The cancer cell lines used in this study included human lung carcinoma (A549), human breast carcinoma (BT20 and MCF-7) and human osteosarcoma (U2OS), with the normal cell lines human peripheral lung epithelial cells (HPL1A) and human mammary epithelial cells (HMEC) serving as controls. A549, BT20, MCF-7, U2OS and HMEC cells were purchased from American Type Culture Collection (ATCC, USA), and HPL1A cells were obtained from Nagoya University, Japan. A549 and BT20 were grown in RPMI-1640 (Sigma), MCF-7 was grown in Dulbecco's Modified Eagle Medium (DMEM) (Sigma) supplemented with 0.01 mg/ml human recombinant insulin (Sigma), U2OS and HMEC were grown in McCoy's 5A (ATCC), and HPL1A was grown in DMEM/F-12K (Sigma). The mediums were supplemented with 10% Fetal Bovine Serum (FBS) (Gibco), 1% penicillin and streptomycin and incubated in a humidified atmosphere with 5% CO2 at 37° C.
The proliferation inhibition potential of cis- and trans-gnetin H was determined by a fluorescence dye staining method. Cells were seeded in a 96-well tissue culture-treated plate (BD Falcon) at a density of 4000 cells/well, and treated with cis- or trans-gnetin H for 48 hours. AlamarBlue dye (Invitrogen) was used to assess the viability of cells according to the manufacturer's instructions; the fluorescent intensity was read on a SpectraMax M2e microplate reader (Molecular Devices Inc.). […]

[5] = test system: L1210 (mouse leukemia) cells; conditions: Ha et al. 2009; cited from earlier work
[6] = test system: HL-60 (human leukemia) cells; conditions: Kang et al. 2003, cited from earlier work

Row | SMILES | p65 phosphorylation ([1]; only at the highest concentration, 50 μM) | apoptosis induction in A549 (A549 cells) | inhibition of IL-1β [2] | less increase in size of large tumors compared to the untreated control ([3]; large tumors) | food intake or body weight of treated animals ([3]; nude mice) | less increase in size of small tumors compared to the untreated control ([3]; small tumors) | more antiproliferation activity than previously reported ([4]; A549, BT20, MCF-7 and U2OS versus literature) | pIC50 ([4]; Homo sapiens, 48 h, bone, breast and lung cancer cell lines, 48 hours, read-out: IC50 values in malignant cells (range over cell lines)) | p65 phosphorylation ([1]; both 15 and 30 μM) | pIC50 [5] | increase of the sub-G1 population ([6]; HL-60 cells, 25 μM) | pIC50 ([6]; read-out: IC50, viability of HL-60 cells)
1 | Oc1ccc(/C=C\c2c3c(cc4c2[C@H](c2cc(O)cc(O)c2)[C@@H](c2ccc(O)cc2)O4)O[C@H](c2ccc(O)cc2)[C@H]3c2cc(O)cc(O)c2)cc1 [cis-gnetin H] | significantly inhibited | induce apoptosis | significant inhibition | 68% | no apparent alteration on food intake or body weight | 39% |  |  |  |  |  | 
2 | Oc1ccc(/C=C/c2c3c(cc4c2[C@H](c2cc(O)cc(O)c2)[C@@H](c2ccc(O)cc2)O4)O[C@H](c2ccc(O)cc2)[C@H]3c2cc(O)cc(O)c2)cc1 [trans-gnetin H] |  | induce apoptosis | significant inhibition |  |  |  | 2-9 fold | 5.00 to 5.87 | significantly inhibited | 4.40 | 11% | 4.60
